Source: PMC8718007, “Decreased glutamate transport in acivicin resistant Leishmania tarentolae” (PLoS Neglected Tropical Diseases, 2021)

Molecular target: LtaPh_2202300 (AAT22) (Leishmania tarentolae, UniProt A0A640KGB0)
Assay: time-dependent uptake of 3H-glutamate, null mutant vs control strain
Type: cell-based
Conditions: 0.1 mM glutamate in PBS, room temperature; labelled compound

Sequence of LtaPh_2202300 (AAT22) (A0A640KGB0 entry or part of it): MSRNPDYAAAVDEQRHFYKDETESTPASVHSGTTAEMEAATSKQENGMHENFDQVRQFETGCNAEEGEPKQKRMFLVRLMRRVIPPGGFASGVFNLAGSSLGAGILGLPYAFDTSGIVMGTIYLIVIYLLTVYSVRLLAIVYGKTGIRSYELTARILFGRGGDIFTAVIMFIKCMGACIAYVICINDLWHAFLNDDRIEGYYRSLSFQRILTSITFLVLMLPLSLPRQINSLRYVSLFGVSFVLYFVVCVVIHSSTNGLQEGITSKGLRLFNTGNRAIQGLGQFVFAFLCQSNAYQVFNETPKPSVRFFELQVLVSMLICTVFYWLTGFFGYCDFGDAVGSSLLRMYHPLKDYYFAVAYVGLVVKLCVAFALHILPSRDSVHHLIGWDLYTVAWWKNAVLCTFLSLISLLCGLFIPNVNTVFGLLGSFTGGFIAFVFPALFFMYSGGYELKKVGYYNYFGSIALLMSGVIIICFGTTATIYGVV

N[C@@H](CCC(=O)O)C(=O)O [glutamate]
uptake: The accumulation of glutamate but not glutamine was greatly diminished in that recombinant strain
